According to ChEMBL document CHEMBL6134905, “Double Swords in One: Novel Selective PI3K/110β PROTAC Degraders for the Treatment of Multidrug-Resistant Cancer by Activating ERS and Inhibiting P-gp” (J Med Chem, 2025):
Active and inactive are the calls of the source. The calls are words filed in the database; no cut-off is given here.

What was measured:
[1] = Toxicity in BALB/c mouse xenografted with human MCF7/ADM cells assessed as change in WBC count at 50 mg/kg, ip; type: organism-based; settings: in vivo
[2] = Toxicity in BALB/c mouse xenografted with human MCF7/ADM cells assessed as liver damage at 50 mg/kg, ip by H and E staining based analysis; type: organism-based; settings: in vivo
A549/CDDP [3] = experiment: Upregulation of ATF6 expression in human A549/DDP cells at 0.25 to 25 uM incubated for 24 hrs by Western blot analysis; type: functional, cell-based; settings: dose 0.25-25 µM
[4] = target: T1, von Hippel-Lindau disease tumor suppressor/Phosphatidylinositol 4,5-bisphosphate 3-kinase catalytic subunit beta isoform (Homo sapiens, UniProt P42338+P40337); experiment: PROTAC activity at PI3K-p110beta/VHL in human A549/DDP cells assessed as reduction in PI3K-p110beta level at 25 uM incubated for 24 hrs by Western blot analysis relative to control; type: cell-based; set-up: scale not given: the % may be the effect or the level left
Target sequence in this assay (P40337 whole entry, looked up, canonical isoform): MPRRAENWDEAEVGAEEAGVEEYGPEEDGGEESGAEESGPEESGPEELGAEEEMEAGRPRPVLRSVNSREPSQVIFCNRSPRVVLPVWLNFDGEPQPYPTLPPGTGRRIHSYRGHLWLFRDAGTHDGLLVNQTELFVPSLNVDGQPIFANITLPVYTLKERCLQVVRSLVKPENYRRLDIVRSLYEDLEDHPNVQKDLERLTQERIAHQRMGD
Target sequence in this assay (P42338 whole entry, looked up, canonical isoform): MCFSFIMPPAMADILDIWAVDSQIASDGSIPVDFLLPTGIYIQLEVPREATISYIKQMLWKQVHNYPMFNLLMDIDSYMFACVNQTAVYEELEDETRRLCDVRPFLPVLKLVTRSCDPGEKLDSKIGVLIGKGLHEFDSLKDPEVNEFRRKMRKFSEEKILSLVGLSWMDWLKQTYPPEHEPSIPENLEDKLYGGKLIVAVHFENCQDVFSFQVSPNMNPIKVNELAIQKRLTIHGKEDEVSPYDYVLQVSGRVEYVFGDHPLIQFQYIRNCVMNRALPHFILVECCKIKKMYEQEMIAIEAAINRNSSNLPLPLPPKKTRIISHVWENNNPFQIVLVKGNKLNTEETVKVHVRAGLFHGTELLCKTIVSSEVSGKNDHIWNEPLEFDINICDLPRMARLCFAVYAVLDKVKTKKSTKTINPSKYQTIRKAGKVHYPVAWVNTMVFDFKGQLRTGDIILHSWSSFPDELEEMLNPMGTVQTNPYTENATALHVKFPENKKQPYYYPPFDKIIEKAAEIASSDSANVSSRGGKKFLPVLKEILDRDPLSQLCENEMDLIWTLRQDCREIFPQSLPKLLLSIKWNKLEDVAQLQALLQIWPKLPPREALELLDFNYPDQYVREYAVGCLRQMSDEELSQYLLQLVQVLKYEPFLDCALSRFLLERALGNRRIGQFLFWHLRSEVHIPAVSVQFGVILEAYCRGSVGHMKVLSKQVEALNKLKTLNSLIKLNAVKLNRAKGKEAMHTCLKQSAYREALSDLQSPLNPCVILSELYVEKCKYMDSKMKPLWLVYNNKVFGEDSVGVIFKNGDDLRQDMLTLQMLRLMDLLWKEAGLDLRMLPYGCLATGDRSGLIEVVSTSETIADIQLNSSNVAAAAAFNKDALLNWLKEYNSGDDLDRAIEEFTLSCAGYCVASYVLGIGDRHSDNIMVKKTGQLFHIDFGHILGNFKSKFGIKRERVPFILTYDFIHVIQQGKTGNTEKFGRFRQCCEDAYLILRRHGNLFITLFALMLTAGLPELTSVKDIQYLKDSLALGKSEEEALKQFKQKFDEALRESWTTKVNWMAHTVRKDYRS

[5] = Toxicity in BALB/c mouse xenografted with human MCF7/ADM cells assessed as kidney damage at 50 mg/kg, ip by H and E staining based analysis; type: organism-based; settings: in vivo
A549/CDDP [6] = experiment: Induction of apoptosis in human A549/DDP cells at 25 uM incubated for 24 hrs by Annexin V-FITC/PI staining based flow cytometry analysis (reference value: 4.27%); type: functional
[7] = Antitumor activity against human MCF7/ADM cells assessed as cell viability incubated for 24 hrs by MTT assay; type: functional, cell-based
[8] = target: T1, von Hippel-Lindau disease tumor suppressor/Phosphatidylinositol 4,5-bisphosphate 3-kinase catalytic subunit beta isoform; experiment: PROTAC activity at PI3K-p110beta/VHL in human MCF7/ADM cells assessed as induction of PI3K-p110beta degradation incubated for 24 hrs by Western blot analysis; type: cell-based
Target sequence in this assay (P42338 whole entry, canonical isoform): as the sequence (P42338 whole entry, looked up, canonical isoform) above
Target sequence in this assay (P40337 whole entry, canonical isoform): as the sequence (P40337 whole entry, looked up, canonical isoform) above

A549 = experiment: Antitumor activity against human A549 cells assessed as cell viability incubated for 24 hrs by MTT assay; type: functional, cell-based; settings: A549, 24 h
[9] = target: von Hippel-Lindau disease tumor suppressor/Phosphatidylinositol 4,5-bisphosphate 3-kinase catalytic subunit alpha isoform (Homo sapiens, UniProt P42336+P40337); experiment: PROTAC activity at PI3K-p110alpha/VHL in human A549/DDP cells assessed as reduction in PI3K-p110alpha mRNA level at 25 uM measured for 24 hrs by qRT-PCR analysis; type: cell-based
MCF7/ADM [10] = experiment: Upregulation of ATF6 expression in human MCF7/ADM cells at 0.25 to 25 uM incubated for 24 hrs by Western blot analysis; type: functional, cell-based; settings: dose 0.25-25 µM
[11] = target: T1, von Hippel-Lindau disease tumor suppressor/Phosphatidylinositol 4,5-bisphosphate 3-kinase catalytic subunit beta isoform; experiment: PROTAC activity at PI3K-p110beta/VHL in human A549/DDP cells assessed as reduction in PI3K-p110beta level incubated for 2 hrs by Western blot analysis; type: cell-based
Target sequence in this assay (P40337 whole entry, looked up, canonical isoform): as above
Target sequence in this assay (P42338 whole entry, looked up, canonical isoform): as the sequence (P42338 whole entry, looked up, canonical isoform) above

A549/CDDP [12] = experiment: Upregulation of ATF4 expression in human A549/DDP cells at 0.25 to 25 uM incubated for 24 hrs by Western blot analysis; type: functional, cell-based; settings: dose 0.25-25 µM
[13] = target: T1, von Hippel-Lindau disease tumor suppressor/Phosphatidylinositol 4,5-bisphosphate 3-kinase catalytic subunit beta isoform; experiment: PROTAC activity at PI3K-p110beta/VHL in human A549/DDP cells assessed as induction of PI3K-p110beta degradation at 25 uM measured for 24 hrs in presence of TGX221 by Western blot analysis; type: cell-based
Target sequence in this assay (P40337 whole entry, looked up, canonical isoform): as the sequence (P40337 whole entry, looked up, canonical isoform) above
Target sequence in this assay (P42338 whole entry, looked up, canonical isoform): as the sequence (P42338 whole entry, looked up, canonical isoform) above

A549/CDDP [14] = experiment: Induction of apoptosis in human A549/DDP cells at 25 uM incubated for 24 hrs in presence of TUDCA by Annexin V-FITC/PI staining based flow cytometry analysis (reference value: 4.27%); type: functional
A549/CDDP [15] = experiment: Downregulation of p-gp level in human A549/DDP cells at 6.25 to 25 uM incubated for 24 hrs; type: functional, cell-based; settings: dose 6.25-25 µM
MCF7/ADM [16] = experiment: Antitumor activity against human MCF7/ADM cells xenografted in BALB/c mouse assessed as increase in PERK expression in tumor at 50 mg/kg, ip by Western blot analysis; type: functional, organism-based
[17] = target: T1, von Hippel-Lindau disease tumor suppressor/Phosphatidylinositol 4,5-bisphosphate 3-kinase catalytic subunit beta isoform; experiment: PROTAC activity at PI3K-p110beta/VHL in human A549/DDP cells assessed as reduction in PI3K-p110beta mRNA level at 25 uM measured for 24 hrs by qRT-PCR analysis; type: cell-based
Target sequence in this assay (P40337 whole entry, looked up, canonical isoform): as the sequence (P40337 whole entry, looked up, canonical isoform) above
Target sequence in this assay (P42338 whole entry, looked up, canonical isoform): as the sequence (P42338 whole entry, looked up, canonical isoform) above

MCF7/ADM [18] = experiment: Antitumor activity against human MCF7/ADM cells xenografted in BALB/c mouse assessed as increase in ATF6 expression in tumor at 50 mg/kg, ip by Western blot analysis; type: functional, organism-based
MCF7/ADM [19] = experiment: Antitumor activity against human MCF7/ADM cells xenografted in BALB/c mouse assessed as increase in bax expression in tumor at 50 mg/kg, ip by Western blot analysis; type: functional, organism-based
[20] = Toxicity in BALB/c mouse xenografted with human MCF7/ADM cells assessed as change in platelet count at 50 mg/kg, ip; type: organism-based; settings: in vivo
MCF7/ADM [21] = experiment: Activation of unfolded protein response in human MCF7/ADM cells at 25 uM incubated for 24 hrs by PROTEOSTATR aggresome dye based fluorescent microscopy; type: functional, cell-based
A549/CDDP [22] = experiment: Upregulation of CHOP expression in human A549/DDP cells at 0.25 to 25 uM incubated for 24 hrs by Western blot analysis; type: functional, cell-based; settings: dose 0.25-25 µM
A549/CDDP [23] = experiment: Induction of oxidative stress in human A549/DDP cells at 25 uM measured for 24 hrs; type: functional, cell-based
A549/CDDP [24] = experiment: Upregulation of p-IRE1 expression in human A549/DDP cells at 0.25 to 25 uM incubated for 24 hrs by Western blot analysis; type: functional, cell-based; settings: dose 0.25-25 µM
MCF7/ADM [25] = experiment: Antitumor activity against human MCF7/ADM cells xenografted in BALB/c mouse assessed as increase in GRP78 expression in tumor at 50 mg/kg, ip by Western blot analysis; type: functional, organism-based
MCF7/ADM [26] = experiment: Antitumor activity against human MCF7/ADM cells xenografted in BALB/c mouse assessed as reduction in AKT expression in tumor at 50 mg/kg, ip by Western blot analysis; type: functional, organism-based
[27] = target: ATP-dependent translocase ABCB1 (Homo sapiens, UniProt P08183); experiment: Inhibition of P-gp in human MCF7/ADM cells at 6.25 to 25 uM incubated for 24 hrs; type: cell-based; settings: dose 6.25-25 µM
[28] = target: T1, von Hippel-Lindau disease tumor suppressor/Phosphatidylinositol 4,5-bisphosphate 3-kinase catalytic subunit beta isoform; experiment: PROTAC activity at PI3K-p110beta/VHL in human MCF7/ADM cells assessed as induction of PI3K-p110beta degradation at 25 uM measured for 24 hrs in presence of MG132 by Western blot analysis; type: cell-based
Target sequence in this assay (P40337 whole entry, looked up, canonical isoform): as the sequence (P40337 whole entry, looked up, canonical isoform) above
Target sequence in this assay (P42338 whole entry, looked up, canonical isoform): as the sequence (P42338 whole entry, looked up, canonical isoform) above

A549/CDDP [29] = experiment: Upregulation of PTEN expression in human A549/DDP cells at 25 uM incubated for 24 hrs by Western blot analysis; type: functional, cell-based
[30] = target: T1, von Hippel-Lindau disease tumor suppressor/Phosphatidylinositol 4,5-bisphosphate 3-kinase catalytic subunit beta isoform; experiment: PROTAC activity at PI3K-p110beta/VHL in human MCF7/ADM cells assessed as reduction in PI3K-p110beta mRNA level at 25 uM measured for 24 hrs by qRT-PCR analysis; type: cell-based
Target sequence in this assay (P40337 whole entry, looked up, canonical isoform): as the sequence (P40337 whole entry, looked up, canonical isoform) above
Target sequence in this assay (P42338 whole entry, looked up, canonical isoform): as the sequence (P42338 whole entry, looked up, canonical isoform) above

[31] = target: T1, von Hippel-Lindau disease tumor suppressor/Phosphatidylinositol 4,5-bisphosphate 3-kinase catalytic subunit beta isoform; experiment: PROTAC activity at PI3K-p110beta/VHL in human MCF7/ADM cells assessed as reduction in PI3K-p110beta level incubated for 24 hrs by Western blot analysis; type: cell-based; settings: dose 0.04-50 µM
[32] = Induction of apoptosis in human MCF7/ADM cells at 6.25 uM incubated for 24 hrs by Annexin V-FITC/PI staining based flow cytometry analysis (reference value: 5.20%); type: functional
[33] = Induction of apoptosis in human MCF7/ADM cells at 25 uM incubated for 24 hrs in presence of TUDCA by Annexin V-FITC/PI staining based flow cytometry analysis (reference value: 5.20%); type: functional

ATP-dependent translocase ABCB1, sequence (P08183 whole entry, canonical isoform): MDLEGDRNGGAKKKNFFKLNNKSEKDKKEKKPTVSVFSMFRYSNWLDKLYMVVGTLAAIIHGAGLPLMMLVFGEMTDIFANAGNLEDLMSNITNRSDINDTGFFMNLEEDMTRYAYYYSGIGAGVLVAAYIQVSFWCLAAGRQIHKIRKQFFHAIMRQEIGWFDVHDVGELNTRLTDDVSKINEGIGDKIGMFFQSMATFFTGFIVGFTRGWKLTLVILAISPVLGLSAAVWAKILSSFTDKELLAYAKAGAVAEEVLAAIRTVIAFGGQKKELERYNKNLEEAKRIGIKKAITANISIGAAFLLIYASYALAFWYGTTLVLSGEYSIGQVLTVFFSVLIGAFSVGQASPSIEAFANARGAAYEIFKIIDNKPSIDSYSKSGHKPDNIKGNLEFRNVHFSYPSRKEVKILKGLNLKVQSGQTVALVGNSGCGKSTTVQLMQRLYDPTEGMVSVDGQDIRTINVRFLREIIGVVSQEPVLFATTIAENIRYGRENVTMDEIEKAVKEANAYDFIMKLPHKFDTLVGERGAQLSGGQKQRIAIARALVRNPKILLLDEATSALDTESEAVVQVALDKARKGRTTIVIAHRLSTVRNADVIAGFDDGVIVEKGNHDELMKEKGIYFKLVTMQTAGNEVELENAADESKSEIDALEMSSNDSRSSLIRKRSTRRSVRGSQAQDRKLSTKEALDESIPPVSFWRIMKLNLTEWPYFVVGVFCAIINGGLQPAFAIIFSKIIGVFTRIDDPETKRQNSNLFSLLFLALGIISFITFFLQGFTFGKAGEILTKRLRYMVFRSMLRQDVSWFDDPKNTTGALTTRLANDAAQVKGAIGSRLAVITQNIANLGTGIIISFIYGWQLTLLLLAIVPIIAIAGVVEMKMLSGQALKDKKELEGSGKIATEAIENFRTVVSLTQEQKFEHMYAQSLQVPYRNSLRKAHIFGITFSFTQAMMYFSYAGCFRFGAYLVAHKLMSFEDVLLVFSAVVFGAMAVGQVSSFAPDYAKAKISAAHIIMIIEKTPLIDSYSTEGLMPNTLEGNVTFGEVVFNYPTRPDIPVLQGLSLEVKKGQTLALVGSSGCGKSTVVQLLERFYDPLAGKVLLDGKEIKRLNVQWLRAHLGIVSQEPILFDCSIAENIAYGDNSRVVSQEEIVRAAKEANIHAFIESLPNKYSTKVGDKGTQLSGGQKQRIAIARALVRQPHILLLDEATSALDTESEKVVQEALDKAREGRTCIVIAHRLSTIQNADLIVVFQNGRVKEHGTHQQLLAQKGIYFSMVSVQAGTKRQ

SMILES	Activity [1]	Activity [2]	Activity (A549/CDDP [3])	Activity [5]	IC50 [7]	IC50 (A549)	Activity (MCF7/ADM [10])	Activity [11]	Activity (A549/CDDP [12])	Activity [13]	Activity (A549/CDDP [15])	Activity (MCF7/ADM [16])	Activity (MCF7/ADM [18])	Activity (MCF7/ADM [19])	Activity [20]	Activity (MCF7/ADM [21])	Activity (A549/CDDP [22])	Activity (A549/CDDP [23])	Activity (A549/CDDP [24])	Activity (MCF7/ADM [25])	also measured
Cc1cc(C(C)Nc2ccccc2C(=O)NCCCCCCC(=O)N[C@H](C(=O)N2C[C@H](O)C[C@H]2C(=O)NCc2ccc(-c3scnc3C)cc2)C(C)(C)C)c2nc(N3CCOCC3)cc(=O)n2c1 (stereo partly drawn)	Non-toxic	Non-toxic	Active	Non-toxic	38.7 µM	85.2 µM	Active	Active	Active	inactive	Active	Active	Active	Active	Non-toxic	Active	Active	Active	Active	Active	Activity [4]: 88%; Activity (A549/CDDP [6]): 23.83%; DC50 [8]: 1.26 µM; Activity [9]: inactive; Activity (A549/CDDP [14]): 22.84%; Activity [17]: inactive; Activity (MCF7/ADM [26]): Active; inhibition (INH) [27]: Active; Activity [28]: Active; Activity (A549/CDDP [29]): Active
Cc1cc(C(C)Nc2ccccc2C(=O)NCCOCCOCCC(=O)N[C@H](C(=O)N2C[C@H](O)C[C@H]2C(=O)NCc2ccc(-c3scnc3C)cc2)C(C)(C)C)c2nc(N3CCOCC3)cc(=O)n2c1 (stereo partly drawn)	Non-toxic	Non-toxic	Active	Non-toxic	30.2 µM	75.3 µM	Active	Active	Active	inactive	Active	Active	Active	Active	Non-toxic	Active	Active	Active	Active	Active	Activity [30]: Active; Activity [31]: Dose-dependent-effect; Activity [32]: 6.88%; Activity [33]: 21.59%; Activity (MCF7/ADM [26]): Active; inhibition (INH) [27]: Active; Activity [28]: Active; Activity (A549/CDDP [29]): Active
